Data as given in PubChem BioAssay AID2060904 (Molecular Pharmacology Branch, DTP, NCI, 2025).

Test system: 349418-098-R-PDC complex spheroid viability
Experiment: Anticancer human tumor 349418-098-R-PDC patient-derived lung adenocarcinoma cell line growth inhibition [RAS]
Settings: for IC50: curve of first compound; for viability, T/C: stronger effect = lower value; active = viability on the fitted dose curve at most 10% of control; inactive = the rest
Method in brief: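 Agents were tested in combination matrices in half-log decrements from a top concentration at or near clinical Cmax (10 microM if undetermined). Targets were multi-cell spheroids of tumour lines plus HUVEC and MSC stromal cells.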

[1] = second compound 0.000949 µM, first compound 0.0316 µM
[2] = second compound 0.000949 µM, first compound 0.1 µM
[3] = second compound 0.000949 µM, first compound 0.316 µM
[4] = second compound 0.000949 µM, first compound 1 µM
[5] = second compound 0.000949 µM, first compound 3.16 µM
[6] = second compound 0.000949 µM, first compound 10 µM
[7] = second compound 0.003 µM, first compound 0.0316 µM
[8] = second compound 0.003 µM, first compound 0.1 µM
[9] = second compound 0.003 µM, first compound 0.316 µM
[10] = second compound 0.003 µM, first compound 1 µM
[11] = second compound 0.003 µM, first compound 3.16 µM
[12] = second compound 0.003 µM, first compound 10 µM
[13] = second compound 0.00949 µM, first compound 0.0316 µM
[14] = second compound 0.00949 µM, first compound 0.1 µM
[15] = second compound 0.00949 µM, first compound 0.316 µM
[16] = second compound 0.00949 µM, first compound 1 µM
[17] = second compound 0.00949 µM, first compound 3.16 µM
[18] = second compound 0.00949 µM, first compound 10 µM
[19] = second compound 0.03 µM, first compound 0.0316 µM
[20] = second compound 0.03 µM, first compound 0.1 µM
[21] = second compound 0.03 µM, first compound 0.316 µM
[22] = second compound 0.03 µM, first compound 1 µM
[23] = second compound 0.03 µM, first compound 3.16 µM
[24] = second compound 0.03 µM, first compound 10 µM
[25] = second compound 0.0949 µM, first compound 0.0316 µM
[26] = second compound 0.0949 µM, first compound 0.1 µM
[27] = second compound 0.0949 µM, first compound 0.316 µM
[28] = second compound 0.0949 µM, first compound 1 µM
[29] = second compound 0.0949 µM, first compound 3.16 µM
[30] = second compound 0.0949 µM, first compound 10 µM
[31] = second compound 0.3 µM, first compound 0.0316 µM
[32] = second compound 0.3 µM, first compound 0.1 µM
[33] = second compound 0.3 µM, first compound 0.316 µM
[34] = second compound 0.3 µM, first compound 1 µM
[35] = second compound 0.3 µM, first compound 3.16 µM
[36] = second compound 0.3 µM, first compound 10 µM
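Also: spheroids exposed to compound for seven days before viability readout.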

Cc1nc(N2CCC3(CC2)COC(C)C3N)c(CO)nc1Sc1ccnc(N)c1Cl (stereo unspecified) + CCn1c(-c2cccnc2C(C)OC)c2c3cc(ccc31)N1CCOC(CC(NC(=O)C(C(C)C)N(C)C(=O)C3(F)CCN(C(=O)C#CC(C)(C)N(C)C)CC3)C(=O)N3CCCC(N3)C(=O)OCC(C)(C)C2)C1
> 10 µM: IC50 (second compound 0.000949 µM) | IC50 (second compound 0.003 µM) | IC50 (second compound 0.00949 µM) | IC50 (second compound 0.03 µM) | IC50 (second compound 0.0949 µM) | IC50 (second compound 0.3 µM)
inactive: viability, T/C [1] 97.9% | viability, T/C [2] 86.4% | viability, T/C [3] 102% | viability, T/C [4] 103% | viability, T/C [5] 101% | viability, T/C [6] 89.5% | viability, T/C [7] 102% | viability, T/C [8] 91.9% | viability, T/C [9] 119% | viability, T/C [10] 96.7% | viability, T/C [11] 97.1% | viability, T/C [12] 108% | viability, T/C [13] 103% | viability, T/C [14] 106% | viability, T/C [15] 106% | viability, T/C [16] 99.8% | viability, T/C [17] 118% | viability, T/C [18] 90.5% | viability, T/C [19] 119% | viability, T/C [20] 107% | viability, T/C [21] 99.3% | viability, T/C [22] 110% | viability, T/C [23] 115% | viability, T/C [24] 91.5% | viability, T/C [25] 98.5% | viability, T/C [26] 98.9% | viability, T/C [27] 105% | viability, T/C [28] 87.9% | viability, T/C [29] 101% | viability, T/C [30] 100% | viability, T/C [31] 83.7% | viability, T/C [32] 89.3% | viability, T/C [33] 100% | viability, T/C [34] 87.8% | viability, T/C [35] 101% | viability, T/C [36] 77.4%

NC1c2ccccc2OC12CCN(c1cnc3c(N4CCCc5ncccc54)n[nH]c3n1)CC2 (stereo unspecified) + CCn1c(-c2cccnc2C(C)OC)c2c3cc(ccc31)N1CCOC(CC(NC(=O)C(C(C)C)N(C)C(=O)C3(F)CCN(C(=O)C#CC(C)(C)N(C)C)CC3)C(=O)N3CCCC(N3)C(=O)OCC(C)(C)C2)C1
inactive: viability, T/C [1] 78.4% | viability, T/C [2] 93.4% | viability, T/C [3] 90.7% | viability, T/C [4] 97% | viability, T/C [5] 108% | viability, T/C [6] 75.5% | viability, T/C [7] 97.2% | viability, T/C [8] 95.3% | viability, T/C [9] 91% | viability, T/C [10] 99.4% | viability, T/C [11] 98.5% | viability, T/C [12] 71.7% | viability, T/C [13] 108% | viability, T/C [14] 95.4% | viability, T/C [15] 90.3% | viability, T/C [16] 116% | viability, T/C [17] 93.6% | viability, T/C [18] 59.8% | viability, T/C [19] 93.9% | viability, T/C [20] 102% | viability, T/C [21] 115% | viability, T/C [22] 96.8% | viability, T/C [23] 98.1% | viability, T/C [24] 85% | viability, T/C [25] 105% | viability, T/C [26] 103% | viability, T/C [27] 116% | viability, T/C [28] 91.3% | viability, T/C [29] 89.7% | viability, T/C [30] 59.3% | viability, T/C [31] 84.8% | viability, T/C [32] 68.8% | viability, T/C [33] 102% | viability, T/C [34] 90.8% | viability, T/C [35] 85.2% | viability, T/C [36] 61.4%
> 10 µM: IC50 (second compound 0.000949 µM) | IC50 (second compound 0.003 µM) | IC50 (second compound 0.00949 µM) | IC50 (second compound 0.03 µM) | IC50 (second compound 0.0949 µM) | IC50 (second compound 0.3 µM)

Nc1ccn(C2OC(CO)C(O)C2(F)F)c(=O)n1 (stereo unspecified) + CCn1c(-c2cccnc2C(C)OC)c2c3cc(ccc31)N1CCOC(CC(NC(=O)C(C(C)C)N(C)C(=O)C3(F)CCN(C(=O)C#CC(C)(C)N(C)C)CC3)C(=O)N3CCCC(N3)C(=O)OCC(C)(C)C2)C1
< 0.00316 µM: IC50 (second compound 0.000949 µM) | IC50 (second compound 0.003 µM) | IC50 (second compound 0.00949 µM) | IC50 (second compound 0.03 µM) | IC50 (second compound 0.0949 µM) | IC50 (second compound 0.3 µM)
inactive: viability, T/C (second compound 0.000949 µM, first compound 0.00316 µM) 23.6% | viability, T/C (second compound 0.003 µM, first compound 0.00316 µM) 22% | viability, T/C (second compound 0.00949 µM, first compound 0.00316 µM) 20.5% | viability, T/C (second compound 0.03 µM, first compound 0.00316 µM) 19.7% | viability, T/C (second compound 0.0949 µM, first compound 0.00316 µM) 19.9% | viability, T/C (second compound 0.3 µM, first compound 0.00316 µM) 16.6%
active: viability, T/C (second compound 0.000949 µM, first compound 0.01 µM) 7.06% | viability, T/C [1] 5.46% | viability, T/C [2] 4.18% | viability, T/C [3] 4.47% | viability, T/C [4] 3.97% | viability, T/C (second compound 0.003 µM, first compound 0.01 µM) 6.17% | viability, T/C [7] 5.46% | viability, T/C [8] 5.26% | viability, T/C [9] 4.96% | viability, T/C [10] 4.2% | viability, T/C (second compound 0.00949 µM, first compound 0.01 µM) 8.01% | viability, T/C [13] 5.62% | viability, T/C [14] 4.89% | viability, T/C [15] 6.38% | viability, T/C [16] 3.73% | viability, T/C (second compound 0.03 µM, first compound 0.01 µM) 6.08% | viability, T/C [19] 4.75% | viability, T/C [20] 5.13% | viability, T/C [21] 5.14% | viability, T/C [22] 3.58% | viability, T/C (second compound 0.0949 µM, first compound 0.01 µM) 7.64% | viability, T/C [25] 4.68% | viability, T/C [26] 4.96% | viability, T/C [27] 5.01% | viability, T/C [28] 4.01% | viability, T/C (second compound 0.3 µM, first compound 0.01 µM) 6.52% | viability, T/C [31] 4.44% | viability, T/C [32] 4.51% | viability, T/C [33] 5.17% | viability, T/C [34] 3.99%
